# Source: patent US20220388964A1 (HiberCell, Inc., priority 2019, published 2022)
# Target: GCN2 (Homo sapiens, UniProt Q9P2K8)
# Test: TR-FRET biochemical assay for inhibition of GCN2 (Example 106, for Example 1-4BB)
# Conditions: Table 8
# Chain of GCN2 (Q9P2K8 whole entry): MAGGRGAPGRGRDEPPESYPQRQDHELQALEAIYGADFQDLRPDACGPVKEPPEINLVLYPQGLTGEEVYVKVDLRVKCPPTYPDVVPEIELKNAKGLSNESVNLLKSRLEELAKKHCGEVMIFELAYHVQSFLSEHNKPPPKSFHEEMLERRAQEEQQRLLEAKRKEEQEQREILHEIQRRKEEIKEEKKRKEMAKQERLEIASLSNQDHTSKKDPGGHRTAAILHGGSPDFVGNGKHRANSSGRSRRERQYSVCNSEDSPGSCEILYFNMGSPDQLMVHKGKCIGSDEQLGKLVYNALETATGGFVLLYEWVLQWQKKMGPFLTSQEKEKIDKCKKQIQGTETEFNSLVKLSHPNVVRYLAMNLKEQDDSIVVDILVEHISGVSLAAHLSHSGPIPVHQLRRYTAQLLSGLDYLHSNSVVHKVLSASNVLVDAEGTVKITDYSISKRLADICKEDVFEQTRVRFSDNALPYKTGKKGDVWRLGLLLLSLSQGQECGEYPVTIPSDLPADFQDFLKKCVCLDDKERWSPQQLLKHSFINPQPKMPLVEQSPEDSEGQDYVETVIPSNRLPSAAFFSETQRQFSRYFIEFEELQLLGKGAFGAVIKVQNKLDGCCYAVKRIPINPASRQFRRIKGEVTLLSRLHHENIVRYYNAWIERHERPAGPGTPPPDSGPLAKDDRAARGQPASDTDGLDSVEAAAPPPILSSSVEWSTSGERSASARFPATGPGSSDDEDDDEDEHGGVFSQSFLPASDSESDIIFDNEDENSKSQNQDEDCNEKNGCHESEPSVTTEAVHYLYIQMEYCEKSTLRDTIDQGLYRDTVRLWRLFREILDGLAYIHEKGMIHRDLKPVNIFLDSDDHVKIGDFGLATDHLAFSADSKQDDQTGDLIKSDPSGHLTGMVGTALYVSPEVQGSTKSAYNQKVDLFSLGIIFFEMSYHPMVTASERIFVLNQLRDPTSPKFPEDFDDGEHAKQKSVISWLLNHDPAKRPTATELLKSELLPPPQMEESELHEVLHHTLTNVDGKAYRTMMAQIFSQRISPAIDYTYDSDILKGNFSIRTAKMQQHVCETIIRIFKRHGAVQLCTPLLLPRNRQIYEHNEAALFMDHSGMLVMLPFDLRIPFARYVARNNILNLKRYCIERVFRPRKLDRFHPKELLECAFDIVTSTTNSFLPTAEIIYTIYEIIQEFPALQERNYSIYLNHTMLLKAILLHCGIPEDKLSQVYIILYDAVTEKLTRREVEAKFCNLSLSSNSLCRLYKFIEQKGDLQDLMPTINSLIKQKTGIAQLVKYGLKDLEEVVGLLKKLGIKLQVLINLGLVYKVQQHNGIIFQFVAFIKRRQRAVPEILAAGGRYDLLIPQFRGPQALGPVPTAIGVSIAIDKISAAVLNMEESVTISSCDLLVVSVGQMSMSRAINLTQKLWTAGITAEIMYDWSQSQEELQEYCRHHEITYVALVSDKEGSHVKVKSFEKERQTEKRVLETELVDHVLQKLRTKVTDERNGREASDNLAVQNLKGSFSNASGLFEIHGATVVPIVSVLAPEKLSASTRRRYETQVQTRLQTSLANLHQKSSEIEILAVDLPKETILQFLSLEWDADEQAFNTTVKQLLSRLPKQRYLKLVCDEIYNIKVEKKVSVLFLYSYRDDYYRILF
row,IC50 [nM],Structure (SMILES)
1,< 500,"Cc1ccccc1S(=O)(=O)Nc1ccc(F)c(-c2ccc3c(-c4ncc[nH]4)n[nH]c3c2F)c1F [Example 2BR, N-(2,4-difluoro-3-(7-fluoro-3-(1H-imidazol-2-yl)-1H-indazol-6-yl)phenyl)-2-methylbenzenesulfonamide]"
2,< 500,"O=S(=O)(Nc1ccc(F)c(-c2ccc3c(-c4ncc[nH]4)n[nH]c3c2F)c1F)c1cc(Cl)cc(CO)c1Cl [Example 2AF, 2,5-dichloro-N-(2,4-difluoro-3-(7-fluoro-3-(1H-imidazol-2-yl)-1H-indazol-6-yl)-phenyl)-3-(hydroxyl-methyl)benzenesulfonamide]"
3,2500 to 10000,"Cn1nncc1S(=O)(=O)Nc1ccc(F)c(-c2ccc3c(-c4ncc[nH]4)n[nH]c3c2F)c1F [Example 2X, N-(2,4-difluoro-3-(7-fluoro-3-(1H-imidazol-2-yl)-1H-indazol-6-yl)phenyl)-1-methyl-1H-1,2,3-triazole-5-sulfonamide]"
4,< 500,"COc1ccc(Cl)c(S(=O)(=O)Nc2ccc(F)c(-c3ccc4c(-c5ncc[nH]5)n[nH]c4c3F)c2F)c1 [Example 2BA, 2-chloro-N-(2,4-difluoro-3-(7-fluoro-3-(1H-imidazol-2-yl)-1H-indazol-6-yl)phenyl)-5-methoxybenzene-sulfonamide]"
5,< 500,"Cc1cccc(S(=O)(=O)Nc2ccc(F)c(-c3ccc4c(-c5ncc[nH]5)n[nH]c4c3F)c2F)c1C [Example 2AI, N-(2,4-difluoro-3-(7-fluoro-3-(1H-imidazol-2-yl)-1H-indazol-6-yl)phenyl)-2,3-dimethylbenzenesulfonamide]"

# Same assay, conditions: Table 9
row,IC50 [nM],Structure (SMILES)
1,500 to 2500,"COc1ncc(F)cc1S(=O)(=O)Nc1cccc(-c2ccc3c(C(=O)NC[C@H](O)CO)n[nH]c3c2F)c1F [Example 3AY, 6-(2-fluoro-3-((5-fluoro-2-methoxypyridine)-3-sulfonamido)phenyl)-N-((S)-2,3-dihydroxypropyl)-7-fluoro-1H-indazole-3-carboxamide]"
2,< 500,"Cc1c(CO)cc(F)cc1S(=O)(=O)Nc1ccc(F)c(-c2ccc3c(-c4ncc[nH]4)n[nH]c3c2F)c1F [Example 32, N-(2,4-Difluoro-3-(7-fluoro-3-(1H-imidazol-2-yl)-1H-indazol-6-yl)phenyl)-5-fluoro-3-(hydroxymethyl)-2-methylbenzenesulfonamide]"
3,< 500,"COc1ncc(F)cc1S(=O)(=O)Nc1cccc(-c2ccc3c(C(N)=O)n[nH]c3c2F)c1F [Example 3AN, 7-fluoro-6-(2-fluoro-3-((5-fluoro-2-methoxypyridine)-3-sulfonamido)phenyl)-1H-indazole-3-carboxamide]"
4,500 to 2500,"COc1ncc(Cl)cc1S(=O)(=O)Nc1ccc(F)c(-c2ccc3c(C(=O)Nc4cnn(C)c4)n[nH]c3c2F)c1F [Example 3BQ, 6-(3-((5-chloro-2-methoxy-pyridine)-3-sulfonamido)-2,6-difluorophenyl)-7-fluoro-N-(1-methyl-1H-pyrazol-4-yl)-1H-indazole-3-carboxamide]"
5,> 10000,"COc1ncc(F)cc1S(=O)(=O)Nc1cccc(-c2ccc3c(C4CCC(=O)N4)n[nH]c3c2F)c1F (stereo not drawn) [Example 12, 5-Fluoro-N-(2-fluoro-3-(7-fluoro-3-(5-oxopyrrolidin-2-yl)-1H-indazol-6-yl)phenyl)-2-methoxypyridine-3-sulfonamide]"
6,500 to 2500,"COc1ncc(F)cc1S(=O)(=O)Nc1cc(F)cc(-c2ccc3c(C(=O)N[C@H]4CCN(C)C4)n[nH]c3c2F)c1F [Example 3BT, 6-(3-((5-fluoro-2-methoxy-pyridine)-3-sulfonamido)-2,5-difluorophenyl)-7-fluoro-N-((S)-1-methylpyrrolidin-3-yl)-1H-indazole-3-carboxamide]"
7,< 500,"Cc1ncc(F)cc1S(=O)(=O)Nc1ncc(F)c(-c2ccc3c(-c4ncc[nH]4)n[nH]c3c2F)c1F [Example 3F, N-(3,5-difluoro-4-(7-fluoro-3-(1H-imidazol-2-yl)-1H-indazol-6-yl)pyridin-2-yl)-5-fluoro-2-methylpyridine-3-sulfonamide]"
